The target in this assay is T1, Gonadotropin-releasing hormone receptor (Rattus norvegicus, UniProt P30969).
T1 sequence (P30969 whole entry): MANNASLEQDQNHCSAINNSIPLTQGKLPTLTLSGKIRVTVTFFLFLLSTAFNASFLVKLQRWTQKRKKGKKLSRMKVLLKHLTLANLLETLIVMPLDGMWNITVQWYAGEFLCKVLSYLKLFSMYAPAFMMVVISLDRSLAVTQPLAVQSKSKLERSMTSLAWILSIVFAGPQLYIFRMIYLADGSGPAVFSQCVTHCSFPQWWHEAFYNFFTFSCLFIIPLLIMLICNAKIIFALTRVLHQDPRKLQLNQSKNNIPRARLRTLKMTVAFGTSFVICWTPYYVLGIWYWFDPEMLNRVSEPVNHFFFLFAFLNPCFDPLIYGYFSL
Put plainly: Evaluated for gonadotropin-releasing hormone receptor binding by displacing the 50% of the bound tracer [125I][D-Lys6]-GnRH radioligand in rat pituitary receptors.

Structures are written as SMILES. pIC50: −log10 of the molar value.

As usually defined, the pIC50 is the IC50 on a negative log10 scale, so that one unit is a factor of ten. Read a high pIC50 as a small IC50. Take `CC(C)C[C@H](NC(=O)[C@@H](CCCCNC(=O)CCCC(=O)OCc1ccc2c(c1)C(=O)c1ccccc1C2=O)NC(=O)[C@H](Cc1ccc(O)cc1)NC(=O)[C@H](CO)NC(=O)[C@H](Cc1c[nH]c2ccccc12)NC(=O)[C@H](Cc1c[nH]cn1)NC(=O)[C@@H]1CCC(=O)N1)C(=O)N[C@@H](CCCNC(=N)N)C(=O)N1CCC[C@H]1C(=O)NCC(N)=O`: the pIC50 was 11.70.

The values are drawn from ChEMBL document CHEMBL1134660, “Design, synthesis, and evaluation of a long-acting, potent analogue of gonadotropin-releasing hormone” (J Med Chem, 2001).
